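Assay format: 96-well plates, 48-hour exposure. Abbreviation: GI50, concentration required for 50% inhibition of growth.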 Calls of active or inactive are those of the source. No stated cut-off is given here; in the data, active = GI50 up to about 1.1 µM and inactive = higher.
Assays:
Experiment in all cases: NCI anticancer screen, dose series, 48 h
ACHN = tested on: ACHN
LOX IMVI = tested on: LOX IMVI
HT-29 = tested on: HT-29
CCRF-CEM = tested on: CCRF-CEM
HCC 2998 = tested on: HCC 2998
TK-10 = tested on: TK-10
OVCAR-3 = tested on: OVCAR-3
SK-MEL-5 = tested on: SK-MEL-5
M19-MEL = tested on: M19-MEL
LXFL 529 = tested on: LXFL 529
SK-MEL-2 = tested on: SK-MEL-2
SK-MEL-28 = tested on: SK-MEL-28
K562 = tested on: K562
SN12C = tested on: SN12C
HL-60 = tested on: HL-60
SNB-19 = tested on: SNB-19
RXF 631 = tested on: RXF 631
HOP-92 = tested on: HOP-92
COLO 205 = tested on: COLO 205
NCI-H522 = tested on: NCI-H522
RXF 393 = tested on: RXF 393
HCT-116 = tested on: HCT-116
SF-295 = tested on: SF-295
SF-268 = tested on: SF-268
U-251 = tested on: U-251
IGROV-1 = tested on: IGROV-1
SF-539 = tested on: SF-539
KM-20L2 = tested on: KM-20L2
HCT-15 = tested on: HCT-15
MOLT-4 = tested on: MOLT-4
UO-31 = tested on: UO-31
XF498 = tested on: XF498
UACC-62 = tested on: UACC-62
NCI-H23 = tested on: NCI-H23
DLD-1 = tested on: DLD-1
DMS-114 = tested on: DMS-114
SK-OV-3 = tested on: SK-OV-3
A498 = tested on: A498
NCI-H460 = tested on: NCI-H460
KM12 = tested on: KM12
DMS-273 = tested on: DMS-273
SR = tested on: SR
OVCAR-5 = tested on: OVCAR-5
SNB-75 = tested on: SNB-75
SNB-78 = tested on: SNB-78
EKVX = tested on: EKVX
M14 = tested on: M14
A549 = tested on: A549
SW-620 = tested on: SW-620
UACC-257 = tested on: UACC-257
Malme-3M = tested on: Malme-3M
OVCAR-8 = tested on: OVCAR-8
HOP-18 = tested on: HOP-18
786-0 = tested on: 786-0
HOP-62 = tested on: HOP-62
RPMI-8226 = tested on: RPMI-8226
OVCAR-4 = tested on: OVCAR-4
NCI-H226 = tested on: NCI-H226
CAKI-1 = tested on: CAKI-1

`CC(C)(C)CI` was tested, and the GI50 (ACHN) was 20.7 µM (inactive), the GI50 (LOX IMVI) was 17.3 µM (inactive) and the GI50 (HT-29) was > 10 µM (inactive). The GI50 (CCRF-CEM) was 21.4 µM (inactive), the GI50 (HCC 2998) was 19.4 µM (inactive) and the GI50 (TK-10) was > 100 µM (inactive). The GI50 (OVCAR-3) was 19.1 µM (inactive), the GI50 (SK-MEL-5) was 16.9 µM (inactive) and the GI50 (M19-MEL) was 23 µM (inactive). For the same compound, the GI50 (LXFL 529) was 33.3 µM (inactive), the GI50 (SK-MEL-2) was 19.8 µM (inactive) and the GI50 (SK-MEL-28) was 50.6 µM (inactive). The GI50 (K562) was 21.6 µM (inactive), the GI50 (SN12C) was 18.4 µM (inactive) and the GI50 (HL-60) was 22.9 µM (inactive). For the same compound, the GI50 (SNB-19) was 23 µM (inactive), the GI50 (RXF 631) was 32.3 µM (inactive) and the GI50 (HOP-92) was 26.2 µM (inactive). For the same compound, the GI50 (COLO 205) was 22.2 µM (inactive), the GI50 (NCI-H522) was 17.5 µM (inactive) and the GI50 (RXF 393) was 18.4 µM (inactive). For the same compound, the GI50 (HCT-116) was 18.5 µM (inactive), the GI50 (SF-295) was 18.5 µM (inactive) and the GI50 (SF-268) was 33.7 µM (inactive). For the same compound, the GI50 (U-251) was 26.2 µM (inactive), the GI50 (IGROV-1) was > 100 µM (inactive) and the GI50 (SF-539) was 88.5 µM (inactive). For the same compound, the GI50 (KM-20L2) was 32.2 µM (inactive), the GI50 (HCT-15) was 33 µM and the GI50 (MOLT-4) was 37.2 µM (inactive). The GI50 (UO-31) was > 10 µM (inactive), the GI50 (XF498) was 18.5 µM (inactive) and the GI50 (UACC-62) was 29.9 µM (inactive). The GI50 (NCI-H23) was 55.6 µM (inactive), the GI50 (DLD-1) was 34.2 µM (inactive) and the GI50 (DMS-114) was 19.7 µM (inactive). For the same compound, the GI50 (SK-OV-3) was 48.4 µM (inactive), the GI50 (A498) was 41.6 µM (inactive) and the GI50 (NCI-H460) was 27.9 µM (inactive). For the same compound, the GI50 (KM12) was 25.7 µM (inactive), the GI50 (DMS-273) was 15.1 µM (inactive) and the GI50 (SR) was 25.4 µM (inactive). The GI50 (OVCAR-5) was 32.2 µM (inactive), the GI50 (SNB-75) was 26.4 µM (inactive) and the GI50 (SNB-78) was 32.1 µM (inactive). The GI50 (EKVX) was 61.5 µM (inactive), the GI50 (M14) was 25 µM (inactive) and the GI50 (A549) was 25.6 µM (inactive). The GI50 (SW-620) was 18.1 µM (inactive), the GI50 (UACC-257) was 21.2 µM (inactive) and the GI50 (Malme-3M) was 19.7 µM (inactive). The GI50 (OVCAR-8) was > 10 µM (inactive) and the GI50 (HOP-18) was > 10 µM (inactive).

In the case of `O=C1/C(=C/c2ccc(Cl)cc2)COc2ccc(Br)cc21`, the GI50 (ACHN) is reported as > 100 µM (inactive), the GI50 (LOX IMVI) is reported as > 100 µM (inactive) and the GI50 (HT-29) is reported as > 100 µM (inactive). For the same compound, the GI50 (CCRF-CEM) was 61.1 µM (inactive), the GI50 (HCC 2998) was > 100 µM (inactive) and the GI50 (TK-10) was > 100 µM (inactive). For the same compound, the GI50 (OVCAR-3) was > 100 µM (inactive), the GI50 (SK-MEL-5) was > 100 µM (inactive) and the GI50 (M19-MEL) was > 100 µM (inactive). For the same compound, the GI50 (LXFL 529) was > 100 µM (inactive), the GI50 (SK-MEL-2) was > 100 µM (inactive) and the GI50 (SK-MEL-28) was > 100 µM (inactive). For the same compound, the GI50 (K562) was > 100 µM (inactive), the GI50 (HL-60) was > 100 µM (inactive) and the GI50 (786-0) was > 100 µM (inactive). The GI50 (RXF 631) was > 100 µM (inactive), the GI50 (HOP-92) was > 100 µM (inactive) and the GI50 (COLO 205) was > 100 µM (inactive). For the same compound, the GI50 (HOP-62) was > 100 µM (inactive), the GI50 (NCI-H522) was 69.7 µM (inactive) and the GI50 (RXF 393) was 50.5 µM (inactive). For the same compound, the GI50 (HCT-116) was > 100 µM (inactive), the GI50 (RPMI-8226) was 6.22 µM (inactive) and the GI50 (SF-295) was > 100 µM (inactive). For the same compound, the GI50 (SF-268) was > 100 µM (inactive), the GI50 (U-251) was > 100 µM (inactive) and the GI50 (IGROV-1) was > 100 µM (inactive). For the same compound, the GI50 (SF-539) was > 100 µM (inactive), the GI50 (KM-20L2) was > 100 µM (inactive) and the GI50 (MOLT-4) was > 100 µM (inactive). For the same compound, the GI50 (UO-31) was 80.4 µM (inactive), the GI50 (XF498) was 69 µM (inactive) and the GI50 (NCI-H23) was > 100 µM (inactive). For the same compound, the GI50 (DLD-1) was > 100 µM (inactive), the GI50 (DMS-114) was > 100 µM (inactive) and the GI50 (SK-OV-3) was > 100 µM (inactive). The GI50 (A498) was > 100 µM (inactive), the GI50 (NCI-H460) was > 100 µM (inactive) and the GI50 (KM12) was > 100 µM (inactive). For the same compound, the GI50 (DMS-273) was > 100 µM (inactive), the GI50 (OVCAR-5) was > 100 µM (inactive) and the GI50 (SNB-75) was > 100 µM (inactive). The GI50 (SNB-78) was > 100 µM (inactive), the GI50 (EKVX) was > 100 µM (inactive) and the GI50 (A549) was > 100 µM (inactive). For the same compound, the GI50 (SW-620) was > 100 µM (inactive), the GI50 (UACC-257) was > 100 µM (inactive) and the GI50 (Malme-3M) was > 100 µM (inactive). The GI50 (OVCAR-8) was > 100 µM (inactive) and the GI50 (HOP-18) was 11.6 µM (inactive).

`Clc1ccc2[nH]c(CCSCCc3nc4ccc(Cl)cc4[nH]3)nc2c1` was tested, and the GI50 (ACHN) was 2.25 µM (inactive), the GI50 (LOX IMVI) was 12.8 µM (inactive) and the GI50 (HT-29) was 11.6 µM (inactive). The GI50 (CCRF-CEM) was 10.8 µM (inactive), the GI50 (HCC 2998) was 15.1 µM (inactive) and the GI50 (TK-10) was 10.3 µM (inactive). The GI50 (SK-MEL-5) was 5.87 µM (inactive), the GI50 (M19-MEL) was 14.4 µM (inactive) and the GI50 (LXFL 529) was 6.18 µM (inactive). The GI50 (SK-MEL-2) was 15.3 µM (inactive), the GI50 (K562) was 16.8 µM (inactive) and the GI50 (OVCAR-4) was 14.2 µM (inactive). For the same compound, the GI50 (SN12C) was 14.4 µM (inactive), the GI50 (HL-60) was 0.491 µM (active) and the GI50 (786-0) was 13.5 µM (inactive). For the same compound, the GI50 (RXF 631) was 6.89 µM (inactive), the GI50 (HOP-92) was 12.7 µM (inactive) and the GI50 (COLO 205) was 15.4 µM (inactive). For the same compound, the GI50 (HOP-62) was 15.2 µM (inactive), the GI50 (NCI-H522) was 12.2 µM (inactive) and the GI50 (RXF 393) was 17.5 µM (inactive). For the same compound, the GI50 (HCT-116) was 6.21 µM (inactive), the GI50 (RPMI-8226) was 2.34 µM (inactive) and the GI50 (SF-295) was 7.62 µM (inactive). For the same compound, the GI50 (U-251) was 13.4 µM (inactive), the GI50 (IGROV-1) was 10.2 µM (inactive) and the GI50 (SF-539) was 16.5 µM (inactive). The GI50 (HCT-15) was 13.2 µM, the GI50 (MOLT-4) was 3.7 µM (inactive) and the GI50 (UO-31) was 11.4 µM (inactive). The GI50 (NCI-H226) was 13.4 µM (inactive), the GI50 (XF498) was 14.2 µM (inactive) and the GI50 (UACC-62) was 5.64 µM (inactive). The GI50 (NCI-H23) was 13.6 µM (inactive), the GI50 (DLD-1) was 15.4 µM (inactive) and the GI50 (SK-OV-3) was 18.1 µM (inactive). The GI50 (NCI-H460) was 15.1 µM (inactive), the GI50 (KM12) was 15.2 µM (inactive) and the GI50 (DMS-273) was 13.4 µM (inactive). The GI50 (SR) was 0.181 µM (active), the GI50 (OVCAR-5) was 12.4 µM (inactive) and the GI50 (SNB-75) was 19.5 µM (inactive). The GI50 (EKVX) was 16.9 µM (inactive), the GI50 (M14) was 13 µM (inactive) and the GI50 (A549) was 10 µM (inactive). For the same compound, the GI50 (SW-620) was 14 µM (inactive), the GI50 (UACC-257) was 12.7 µM (inactive) and the GI50 (OVCAR-8) was 14.2 µM (inactive). For the same compound, the GI50 (HOP-18) was 22.3 µM (inactive) and the GI50 (CAKI-1) was 4.55 µM (inactive).

— ChEMBL document CHEMBL1201862, “PubChem BioAssay data set” (2004)
